Measured values published in patent EP0533926A1, “[…]” (NIPPON SHINYAKU COMPANY, LIMITED, priority 1990, dated 1991).

Test system: human platelet aggregation
Assay: Inhibitory effect on human platelet aggregation (collagen-induced, PRP, absorbance at 660 nm)
Assay type: cell-based
Conditions: concentration of collagen 2 µg/ml, 37 °C, read-out: percent inhibition of platelet aggregation (%); for inhibition at 10 µM: test drug 10 µM; for inhibition at 100 µM: test drug 100 µM
Experimental: Inhibitory effect on human platelet aggregation
Using a syringe filled with 2.5 ml of sodium citrate solution (Citrate for erythrocyte sedimentation test (Kokusai) distributed by Green Cross Corporation) beforehand, human blood was collected in a total quantity of 25 ml and stirred well. The blood was then centrifuged at 200× g for 10 minutes and the supernatant was recovered as a PRP (platelet-rich plasma).
Horse tendon collagen [HORMON-CHEMIE MÜNCHEN GMBH, collagen reagent (Holm)] was previously diluted to 10 and 20 µg /ml with the accompanying buffer.
Each test drug was diluted with PBS and its concentration (mM) was estimated from ultraviolet absorption.
The assay for platelet aggregation was carried out with NKK HEMA TRACER 1 (Nikko Bioscience). The cell was filled with 0.2 ml of PRP and 0.025 ml of the test drug solution and the absorbance was measured at a constant temperature of 37 °C. Then, 0.025 ml of the above collagen solution was added and the absorbance was measured (wavelength 660 nm). The percent inhibition of platelet aggregation (%) was calculated by means of the following equation. [formula] [ ] represents the absorbance.

Row | Compound | inhibition at 10 µM [%] | inhibition at 100 µM [%]
1 | Nc1nc2c(nc(Br)n2[C@@H]2O[C@@H]3COP(=O)(O)O[C@H]3[C@H]2O)c(=O)[nH]1 [Example 8-Br-c-GMP, 8-bromocyclic GMP] | 2.9 | 49
2 | Nc1nc2c(ncn2[C@@H]2O[C@@H]3COP(=O)(O)O[C@H]3[C@H]2O)c(=O)[nH]1 [c-GMP, cyclic GMP] | 4 | 23
